Results on seven molecules are retold here after patent publication US7439372B2, “Therapeutic compounds” (Allergan, Inc., priority 2006, dated 2008).

Holding throughout (format): cell-based
For test [1], the target named is T1, hFP (Homo sapiens, UniProt P43088).
T1 construct: expressed in transfected cells; host or cells: HEK-293(EBNA)
In words: FLIPR calcium signal, HEK-293(EBNA) cells expressing hFP. The procedure:
(§1) HEK-293(EBNA) cells, stably expressing one type or subtype of recombinant human prostaglandin receptors (prostaglandin receptors expressed: hDP/Gqs5; hEP1; hEP2/Gqs5; hEP3A/Gqi5; hEP4/Gqs5; hFP; hIP; hTP), were cultured in 100 mm culture dishes in high-glucose DMEM medium containing 10% fetal bovine serum, 2 mM l-glutamine, 250 µg/ml geneticin (G418) and 200 μg/ml hygromycin B as selection markers, and 100 units/ml penicillin G, 100 µg/ml streptomycin and 0.25 μg/ml amphotericin B.
(§2) Cells were seeded at a density of 5×10^4 cells per well in Biocoat® Poly-D-lysine-coated black-wall, clear-bottom 96-well plates (Becton-Dickinson) and allowed to attach overnight in an incubator at 37° C. Cells were then washed two times with HBSS-HEPES buffer (Hanks Balanced Salt Solution without bicarbonate and phenol red, 20 mM HEPES, pH 7.4) using a Denley Cellwash plate washer (Labsystems). After 45 minutes of dye-loading in the dark, using the calcium-sensitive dye Fluo-4 […] at a final concentration of 2 μM, plates were washed four times with HBSS-HEPES buffer to remove excess dye leaving 100 μl in each well. Plates were re-equilibrated to 37° C. for a few minutes.
(§3) Cells were excited with an Argon laser at 488 nm, and emission was measured through a 510-570 nm bandwidth emission filter (FLIPR™, Molecular Devices, Sunnyvale, Calif.). Drug solution was added in a 50 µl volume to each well to give the desired final concentration. The peak increase in fluorescence intensity was recorded for each well. On each plate, four wells each served as negative (HBSS-HEPES buffer) and positive controls (standard agonists: BW245C (hDP); PGE2 (hEP1; hEP2/Gqs5; hEP3A/Gqi5; hEP4/Gqs5); PGF2α (hFP); carbacyclin (hIP); U-46619 (hTP), depending on receptor). The peak fluorescence change in each drug-containing well was then expressed relative to the controls.
(§4) Compounds were tested in a high-throughput (HTS) or concentration-response (CoRe) format. In the HTS format, forty-four compounds per plate were examined in duplicates at a concentration of 10^−5 M. To generate concentration-response curves, four compounds per plate were tested in duplicates in a concentration range between 10^−5 and 10^−11 M. The duplicate values were averaged. In either, HTS or CoRe format each compound was tested on at least 3 separate plates using cells from different passages to give an n≧3.

For test [2], the target named is EP2 (Homo sapiens, UniProt P43116). In words: cAMP measurement, EP2 (data in parentheses). Particulars: data in parentheses refer to cAMP measurement.
Chain of EP2 (P43116 whole entry): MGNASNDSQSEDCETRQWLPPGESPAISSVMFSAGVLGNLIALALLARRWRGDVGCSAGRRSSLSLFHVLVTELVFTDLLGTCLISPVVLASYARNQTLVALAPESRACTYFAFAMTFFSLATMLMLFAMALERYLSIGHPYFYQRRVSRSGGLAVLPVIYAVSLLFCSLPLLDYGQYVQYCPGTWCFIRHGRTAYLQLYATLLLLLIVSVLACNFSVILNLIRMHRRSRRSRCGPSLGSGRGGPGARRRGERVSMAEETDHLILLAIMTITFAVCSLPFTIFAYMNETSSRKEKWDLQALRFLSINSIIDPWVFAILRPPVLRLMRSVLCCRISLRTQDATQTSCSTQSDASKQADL
Test [3] deals with T2, hDP/Gqs5 (Homo sapiens, UniProt Q13258).
T2 construct: expressed in transfected cells; host or cells: HEK-293(EBNA)
T2 sequence (Q13258 1-359): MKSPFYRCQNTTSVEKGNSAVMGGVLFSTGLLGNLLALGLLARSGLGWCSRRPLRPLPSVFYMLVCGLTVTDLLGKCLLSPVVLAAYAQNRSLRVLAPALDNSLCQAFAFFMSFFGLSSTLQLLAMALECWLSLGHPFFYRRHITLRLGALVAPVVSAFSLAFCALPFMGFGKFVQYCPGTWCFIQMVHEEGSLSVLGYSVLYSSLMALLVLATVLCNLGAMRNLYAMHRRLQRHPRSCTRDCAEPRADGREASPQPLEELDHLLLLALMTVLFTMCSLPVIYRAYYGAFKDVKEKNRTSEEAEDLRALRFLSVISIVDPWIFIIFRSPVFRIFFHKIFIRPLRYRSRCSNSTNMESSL
Description: FLIPR calcium signal, HEK-293(EBNA) cells expressing hDP/Gqs5. The method, then: as §1, §2, §3, §4

Test [4] addresses T3, hEP3A/Gqi5 (Homo sapiens, UniProt P43115).
T3 construct: expressed in transfected cells; host or cells: HEK-293(EBNA)
T3 sequence (P43115 1-390): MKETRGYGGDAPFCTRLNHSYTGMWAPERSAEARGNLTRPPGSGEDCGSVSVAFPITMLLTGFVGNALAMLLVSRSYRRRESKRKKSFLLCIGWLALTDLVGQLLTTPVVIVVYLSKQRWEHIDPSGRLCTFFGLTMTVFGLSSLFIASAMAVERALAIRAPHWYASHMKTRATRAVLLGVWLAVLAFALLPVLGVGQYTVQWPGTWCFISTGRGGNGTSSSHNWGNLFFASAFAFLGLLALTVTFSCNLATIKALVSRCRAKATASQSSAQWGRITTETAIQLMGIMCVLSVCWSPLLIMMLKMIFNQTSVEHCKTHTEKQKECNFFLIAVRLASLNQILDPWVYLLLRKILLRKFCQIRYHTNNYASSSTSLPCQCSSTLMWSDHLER
In words: FLIPR calcium signal, HEK-293(EBNA) cells expressing hEP3A/Gqi5. The settings on record: for EC50: read-out: Ca2+ Signal-EC50(nM) EP3. The procedure: as §1, §2, §3, §4

Test [5] deals with T4, hEP1 (Homo sapiens, UniProt P34995).
T4 construct: expressed in transfected cells; host or cells: HEK-293(EBNA)
T4 sequence (P34995 1-402): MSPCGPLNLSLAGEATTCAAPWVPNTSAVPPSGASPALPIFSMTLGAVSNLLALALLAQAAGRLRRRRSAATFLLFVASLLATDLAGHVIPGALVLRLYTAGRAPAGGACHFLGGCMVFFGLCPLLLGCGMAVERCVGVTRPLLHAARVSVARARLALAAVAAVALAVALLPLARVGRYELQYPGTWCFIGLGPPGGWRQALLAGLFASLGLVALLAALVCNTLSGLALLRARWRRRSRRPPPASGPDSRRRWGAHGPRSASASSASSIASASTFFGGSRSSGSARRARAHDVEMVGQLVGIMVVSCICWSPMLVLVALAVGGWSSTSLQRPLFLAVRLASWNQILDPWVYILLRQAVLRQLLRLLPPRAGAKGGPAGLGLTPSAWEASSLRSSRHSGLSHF
In words: FLIPR calcium signal, HEK-293(EBNA) cells expressing hEP1. The procedure: as §1, §2, §3, §4

T1 sequence (P43088 whole entry): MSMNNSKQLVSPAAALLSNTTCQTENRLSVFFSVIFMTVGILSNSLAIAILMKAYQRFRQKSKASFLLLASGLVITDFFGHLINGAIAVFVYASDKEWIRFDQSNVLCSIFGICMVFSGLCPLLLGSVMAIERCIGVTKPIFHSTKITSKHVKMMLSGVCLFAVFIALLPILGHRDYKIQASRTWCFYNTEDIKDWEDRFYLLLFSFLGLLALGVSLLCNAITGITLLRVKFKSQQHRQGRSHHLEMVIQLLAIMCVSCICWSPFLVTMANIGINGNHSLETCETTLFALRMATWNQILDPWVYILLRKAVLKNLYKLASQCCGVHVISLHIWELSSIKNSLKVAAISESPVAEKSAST

For the molecule `CCCCCC(O)c1ccc([C@@H]2[C@@H](C/C=C\CCCC(=O)O)CC[C@H]2Cl)cc1` (some centres unmarked) [compound 6], the “Ca2+ Signal-EC50(nM) FP” value in test [1] is “notactive”. Besides, the values for the EC50 in test [2] and in test [4] were 94 nM and 182 nM, respectively. Moreover, in test [3], the “Ca2+ Signal-EC50(nM) DP” value is recorded as “notactive”. In test [5], the “Ca2+ Signal-EC50(nM) EP1” value is on record as “notactive”.
Consider `CCCCCC(O)c1ccc([C@H]2C(=O)C=C[C@@H]2CCCc2ccc(C(=O)O)s2)cc1` (some centres unmarked) [compound 11], for which the “Ca2+ Signal-EC50(nM) FP” value in test [1] was “notactive”. Further, the EC50 (in general, the concentration that produces a half-maximal response) turned out to be 9 nM in test [2] and 4550 nM in test [4]. Besides, the “Ca2+ Signal-EC50(nM) DP” value in test [3] is given as “notactive”. For the same molecule, the “Ca2+ Signal-EC50(nM) EP1” value in test [5] is “notactive”.
As for `CCCCCC(O)c1ccc([C@H]2C(=O)CC[C@@H]2C/C=C\CCCC(=O)O)cc1` (some centres unmarked) [compound 5], the “Ca2+ Signal-EC50(nM) FP” value in test [1] is “notactive”. The values for the EC50 in test [2] and in test [4] were 34 nM and 4420 nM, respectively. In addition, the “Ca2+ Signal-EC50(nM) DP” value in test [3] was “notactive”. Also, the “Ca2+ Signal-EC50(nM) EP1” value in test [5] is given as “notactive”.
For the molecule `CCCCCC(O)c1ccc([C@H]2C(=O)CC[C@@H]2CCCc2ccc(C(=O)O)s2)cc1` (some centres unmarked) [compound 1], the “Ca2+ Signal-EC50(nM) FP” value in test [1] is recorded as “notactive”. In addition, the figures for the EC50 in test [2] and in test [4] were 5 nM and 8780 nM, respectively. In addition, in test [3], the “Ca2+ Signal-EC50(nM) DP” value was “notactive”. For the same molecule, in test [5], the “Ca2+ Signal-EC50(nM) EP1” value is listed as “notactive”.
For `CCCCCC(O)c1ccc([C@H]2C(=O)CC[C@@H]2CCCc2ccc(C(=O)O)s2)cc1` (some centres unmarked) [compound 2], in test [1], the “Ca2+ Signal-EC50(nM) FP” value is listed as “notactive”. Further, the results for the EC50 in test [2] and in test [3] (read-out: Ca2+ Signal-EC50(nM) DP) were 9 nM and 9060 nM, respectively. In addition, the “Ca2+ Signal-EC50(nM) EP3” value in test [4] is on record as “notactive”. Besides, the “Ca2+ Signal-EC50(nM) EP1” value in test [5] is “notactive”.
For the molecule `CCCCCC(O)c1ccc([C@@H]2[C@@H](CCCc3ccc(C(=O)O)s3)CCC2(Cl)Cl)cc1` (some centres unmarked) [compound 3], in test [1], the “Ca2+ Signal-EC50(nM) FP” value was “notactive”. For the same molecule, the EC50 in test [2] is 3 nM. The “Ca2+ Signal-EC50(nM) DP” value in test [3] was “notactive”. Further, the “Ca2+ Signal-EC50(nM) EP3” value in test [4] is “notactive”. Besides, the “Ca2+ Signal-EC50(nM) EP1” value in test [5] is on record as “notactive”.
Regarding `CCCCCC(O)c1ccc([C@@H]2[C@@H](C/C=C\CCCC(=O)O)CC[C@H]2O)cc1` (some centres unmarked) [compound 7], the “Ca2+ Signal-EC50(nM) FP” value in test [1] is reported as “notactive”. The EC50 was found to be 73 nM in test [2] and 3480 nM in test [4]. In test [3], the “Ca2+ Signal-EC50(nM) DP” value is reported as “notactive”. The “Ca2+ Signal-EC50(nM) EP1” value in test [5] is reported as “notactive”.
